Measurements reported in US8377913B2, “Vitamin D receptor activators and methods of making” (AbbVie Inc., priority 2007, dated 2013).

Assays:
[1] = tested on: PAI-1 mRNA in human coronary artery smooth muscle cells (CASMC); assay: PAI-1 mRNA in CASMC; assay type: cell-based; conditions: Homo sapiens
Protocol: (§1) Primary culture of human coronary artery smooth muscle cells (CASMC) (commercially available from Cambrex, Walkersville, Md.) were grown in smooth muscle growth medium SmGM-2 (commercially available from Lonza Bioscience) containing 5.5 mM glucose, 5% FBS, 50 μg/ml gentamicin, 50 ng/ml amphotericin-B, 5 μg/ml insulin, 2 ng/ml human recombinant fibroblast growth factor (hFGF), and 0.5 ng/ml human recombinant epidermal growth factor (hEGF) at 37° C. in a humidified 5% CO2-95% air atmosphere. Cells were grown to >80% confluence and used within five passages.
(§2) Real-time reverse transcription-PCR was performed with a MyiQ Real-Time PCR Detection System (BioRad, Hercules, Calif.). Each sample has a final volume of 25 μl containing 100 ng of cDNA, […] each of the forward and reverse PCR primers and […] of the TaqMan™ probe for the gene of interest (Applied Biosystems, Foster City, Calif.). Temperature conditions consisted of a step of 5 minutes at 95° C., followed by 40 cycles of 60° C. for 1 minute and 95° C. for 15 seconds. Data was collected during each extension phase of the PCR reaction and analyzed with the software package (BioRad, Hercules, Calif.). Threshold cycles were determined for each gene. […]

[2] = tested on: Renin mRNA in As4.1 cells; assay: Renin mRNA in As4.1 cells transfected with pcDNA-hVDR (real-time RT-PCR); assay type: cell-based
Protocol: As4.1 cells (ATCC, Manassas, Va.) were cultured in Dulbecco's Modified Eagle Medium DMEM (commercially available from Invitrogen, Carlsbad, Calif.) with 10% fetal bovine serum at 37° C. in a humidified 5% CO2-95% air atmosphere. C3;ells were transfected with the pcDNA-hVDR plasmid (provided by Yan Chun Li, University of Chicago) by LIPOFECTAMINE™ 2000 (Invitrogen, Carlsbad, Calif.). siRNA was transfected with the pcDNA-hVDR plasmid by LIPOFECTAMINE™ 2000 according to the manufacturer's protocol. Twenty-four hours after transfection, cells were treated with test agents.
Real-time reverse transcription-PCR was performed with a MyiQ Real-time PCR Detection System (commercially available from BioRad, Hercules, Calif.). […] TaqMan™ probes that were 5′ labeled with the reporter 6-carboxyfluorescein (FAM) and 3′ labeled with the quencher tetramethylrhodamine (TAMRA) were used and the primer and probe sets were obtained from Applied Biosystems (Foster City, Calif.). Temperature conditions consisted of a step of 5 minutes at 95° C., followed by 45 cycles of 60° C. for 1 minute and 95° C. for 15 seconds. Data was collected during each extension phase of the PCR reaction and analyzed with the accompanying software package (BioRad, Hercules, Calif.). Threshold cycles were determined for each gene.

Male, C57BL6, mice = assay: Normal Mouse Calcemia Model; assay type: in vivo; conditions: s.c. once daily for 3 days, dose giving 1 mg/dL change in total Ca
Protocol: Male, C57BL6, mice were obtained from Jackson Laboratories. The mice were habituated for four days while maintained on a normal diet (D10001, Research Diets Inc.). Treatment was initiated with vehicle (20% ethanol/30% propylene glycol/50% water, 0.05 mL, s.c.) or test agent administered over a three log dose range. The animals were dosed once daily for 3 days. Twenty-four hours after the last dose, animals were anesthetized with ketamine/xylazine (100/18 mg/kg) and bled by cardiac puncture for measurement of PTH and other end points.
Measurement of PTH and minerals: Calcium (Ca), serum phosphorus (Pi), creatinine and BUN were measured from serum using an Abbott Aeroset® (Abbott Laboratories, Abbott Park, Ill.). Blood ionized calcium (iCa) was determined using the i-STAT® system (Abbott Laboratories, East Windsor, N.J.). Serum PTH was measured using a mouse parathyroid hormone (PTH) EIA kit obtained from ALPCO/Immutopics, Inc. (Windham, N.H.). Selected data is shown is Table 6. The graphs in FIG. 4 give an indication of dose response. Notable is that Example 1 produced an approximately 30% reduction in PTH over at least a three log dose range without a concomitant elevation of serum calcium of greater than 1 mg/dL.
Data analysis: Mean±standard error of the mean was calculated for each group. One way ANOVA followed by a Dunnett's test was used to assess differences between vehicle and drug-treated groups. *p<0.05=significance.

[3] = tested on: Thrombospondin mRNA in human coronary artery smooth muscle cells (CASMC); assay: Thrombospondin mRNA in CASMC; assay type: cell-based; conditions: Homo sapiens
Protocol: as §1, §2

[4] = tested on: Human promyelocytic leukemia (HL60) cells; assay: HL-60 Differentiation; assay type: cell-based; conditions: HL-60, 96 h, four days incubation, NBT, absorbance 570 nm
Protocol: Human promyelocytic leukemia (HL60) cells were obtained from the American Type Culture Collection (ATCC Cat. # CCL-240, Manassas, Va.). Cells were maintained in RPMI 1640 medium (commercially available from Invitrogen, Carlsbad, Calif.) containing 10% fetal bovine serum (commercially available from Invitrogen, Carlsbad, Calif.) at 37° C. with 5% CO2. Cells were passaged weekly and were not allowed to become >90% confluent. For the assay, cells were plated at 5×10^5 cells per well in 200 uL media. Test compounds were diluted in media in concentrations between 10^−6-10^−10 M and then added to the appropriate wells. Cells were then incubated for four days at 37° C. in 5% CO2 atmosphere. After incubation, media was aspirated from each well and 75 uL of NBT solution (nitroblue tetrazolinium: 200 ng/mL PMA (phorbol 12-myrystate 13-acetate) and 2 mg/ml NBT (nitroblue tetrazolium) in distilled H2O) was added to each well followed by further incubation for 2 hours at 37° C. Following incubation, 150 uL lysis buffer (225 mL dimethylformamide, 67.5 g SDS). PMA stock solution (2 mg/ml in ethanol) was added to each well and the plate was allowed to sit at room temperature for 4 hours. HL-60 cell differentiation was assayed, Effect of each compound on cell growth was examined as a function of time; absorbance in each well was measured at 570 nm.

[5] = tested on: Thrombomodulin mRNA in human coronary artery smooth muscle cells (CASMC); assay: Thrombomodulin mRNA in CASMC; assay type: cell-based; conditions: for EC50: Homo sapiens
Protocol: as §1, §2

[6] = molecular target: T1, recombinant full-length human Vitamin D nuclear receptor (Homo sapiens, UniProt P11473); assay: biochemical
T1 sequence (P11473 1-427): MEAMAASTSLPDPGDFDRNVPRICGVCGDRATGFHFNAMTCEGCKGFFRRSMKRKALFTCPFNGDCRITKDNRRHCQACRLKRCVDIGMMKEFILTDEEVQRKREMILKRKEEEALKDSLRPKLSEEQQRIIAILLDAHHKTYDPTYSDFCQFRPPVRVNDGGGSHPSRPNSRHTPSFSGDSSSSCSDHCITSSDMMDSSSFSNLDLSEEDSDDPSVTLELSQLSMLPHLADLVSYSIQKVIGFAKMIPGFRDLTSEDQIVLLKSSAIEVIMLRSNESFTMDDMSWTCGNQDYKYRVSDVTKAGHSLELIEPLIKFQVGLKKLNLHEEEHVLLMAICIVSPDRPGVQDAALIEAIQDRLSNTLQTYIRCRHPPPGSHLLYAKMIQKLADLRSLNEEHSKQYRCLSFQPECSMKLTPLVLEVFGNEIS
Protocol: In vitro binding of selected compounds according to the invention to VDR was assessed using the following procedure. […] Each test compound was then serially diluted in binding buffer to concentrations appropriate for the assay, as one skilled in the art can determine.
Final assay volume was 100 uL. The filled plate was incubated overnight at 4° C. with gentle shaking. After 18 hours of incubation, 20 uL of wheat germ agglutinin-coated yttrium silicate scintillation proximity assay (SPA) beads (commercially available from Amersham Biosciences, Piscataway, N.J.; Part # RPNQ0270) resuspended in binding buffer was added to each well (200 ug/well) and the plate was incubated at room temperature for 2 hours with gentle shaking.

[7] = tested on: VDR (VDRE-luciferase-reporter construct); assay: VDRE Reporter Gene Assay in HEK cells with stable expression of VDR; assay type: cell-based; conditions: Homo sapiens, HEK293, 24 hours
Protocol: Compound activity was also assessed by looking at a Vitamin D Response Element (VDRE) reporter gene assay, Human Embryonic Kidney cells (HEK cells) with a stable expression of VDR were cultured in 96-well plates at ˜4×10^5 cells/mL (100 μL/well) in DMEM medium containing 10% fetal calf serum. Cells were transfected with 0.2 μg per well of a VDRE-luciferase-reporter construct (from Y. Li, University of Chicago) and then treated with test agents at indicated concentrations for 24 hours. The luciferase activity was then measured following the manufacturer's instructions (Promega, Madison, Wis.).

IC50 [1] | IC50 [2] | IC50 [3] | EC50 [4] | EC50 [5] | IC50 [6] | EC50 [7] | Thrombomodulin mRNA in CASMC EC50 [5] | SMILES | 1 mg/dL Δ total Ca (Male, C57BL6, mice)
0.002 nM | 2.4 nM | 0.001 nM |  | 5.6 nM | 0.1 nM | 0.3 nM |  | C=C1[C@H](O)CC(=C/C=C2\CCC[C@]3(C)[C@@H]([C@H](C)COC(=O)NC(C)(C)C)CC[C@@H]23)C[C@H]1O [Example 5, (2S)-2-[(1R,3R,7E,17β)-1,3-dihydroxy-2-methylene-9,10-secoestra-5,7-dien-17-yl]propyl tert-butylcarbamate] | 
0.5 nM | 0.8 nM | 0.2 nM | 16 nM | 1.5 nM | 14.6 nM | 5.9 nM |  | C[C@H](/C=C/[C@H](C)C(C)(C)O)[C@H]1CC[C@H]2/C(=C/C=C3C[C@@H](O)C[C@H](O)C3)CCC[C@]12C [Paricalcitol, paricalcitol, reference compound] | 0.286 µg/kg

Continued, molecule first:

SMILES | IC50 [1] | IC50 [2] | IC50 [3] | EC50 [4] | EC50 [5] | IC50 [6] | EC50 [7] | Thrombomodulin mRNA in CASMC EC50 [5] | 1 mg/dL Δ total Ca (Male, C57BL6, mice)
C=C1/C(=C\C=C2/CCC[C@]3(C)[C@@H]([C@H](C)CCCC(C)(C)O)CC[C@@H]23)C[C@@H](O)C[C@@H]1O [Calcitriol, 1,25-dihydroxyvitamin D3, reference compound] | 0.8 nM | 1.6 nM | 19.1 nM | 7 nM | 1.6 nM |  |  |  | 0.026 µg/kg
C=C1[C@H](O)CC(=C/C=C2\CCC[C@]3(C)[C@@H]([C@H](C)CO)CC[C@@H]23)C[C@H]1O [Example 2, (1R,3R,7E,17β)-17-[(1S)-2-hydroxy-1-methylethyl]-2-methylene-9,10-secoestra-5,7-diene-1,3-diol] | 0.03 nM | 0.7 nM | 3.7 nM | 162 nM |  | 890 nM | 52.7 nM | inactive | 
C=C1[C@H](O)CC(=C/C=C2\CCC[C@]3(C)[C@@H]([C@@H](C)COC(=O)C(C)(C)C)CC[C@@H]23)C[C@H]1O [Example 3, (2R)-2-[(1R,3R,7E,17β)-1,3-dihydroxy-2-methylene-9,10-secoestra-5,7-dien-17-yl]propyl pivalate] | 0.003 nM | 0.4 nM | 0.002 nM | 3.9 nM | 39.9 nM | 1330 nM | 0.9 nM |  | 
C=C1[C@H](O)CC(=C/C=C2\CCC[C@]3(C)[C@@H]([C@H](C)COC(=O)C(C)(C)CC)CC[C@@H]23)C[C@H]1O [Example 4, (2S)-2-[(1R,3R,7E,17β)-1,3-dihydroxy-2-methylene-9,10-secoestra-5,7-dien-17-yl]propyl 2,2-dimethylbutanoate] | 0.02 nM | 3.4 nM | 0.001 nM | 0.7 nM | 84.7 nM | 62.4 nM | 1.3 nM |  | 
